Assay results: the NIST ThermoML archive (doi:10.1016/j.fluid.2012.11.026)
± gives the expanded uncertainty stated by the source.

Settings: Liquid, Closed cell (Static) method

| vapor or sublimation pressure (353.15 K) [kPa] | vapor or sublimation pressure (363.15 K) [kPa] | Compound |
| --- | --- | --- |
| 20.74 ± 2.2 | 30.23 ± 3.1 | CCOC(=O)OCC [diethyl carbonate] |
| 108.14 ± 11 | 156.04 ± 16 | CCO [ethanol] |
| 47.33 ± 4.8 | 70.07 ± 7 | O [water] |
